This is an account of results in paper PMC11873638 (Acta Pharmaceutica Sinica. B, 2024).

Data set [1] addresses T1, HDB-EtCl O-dechloroethylation (CYP1A1) in human liver microsomes (Homo sapiens, UniProt P04798).
T1 sequence (P04798 1-512): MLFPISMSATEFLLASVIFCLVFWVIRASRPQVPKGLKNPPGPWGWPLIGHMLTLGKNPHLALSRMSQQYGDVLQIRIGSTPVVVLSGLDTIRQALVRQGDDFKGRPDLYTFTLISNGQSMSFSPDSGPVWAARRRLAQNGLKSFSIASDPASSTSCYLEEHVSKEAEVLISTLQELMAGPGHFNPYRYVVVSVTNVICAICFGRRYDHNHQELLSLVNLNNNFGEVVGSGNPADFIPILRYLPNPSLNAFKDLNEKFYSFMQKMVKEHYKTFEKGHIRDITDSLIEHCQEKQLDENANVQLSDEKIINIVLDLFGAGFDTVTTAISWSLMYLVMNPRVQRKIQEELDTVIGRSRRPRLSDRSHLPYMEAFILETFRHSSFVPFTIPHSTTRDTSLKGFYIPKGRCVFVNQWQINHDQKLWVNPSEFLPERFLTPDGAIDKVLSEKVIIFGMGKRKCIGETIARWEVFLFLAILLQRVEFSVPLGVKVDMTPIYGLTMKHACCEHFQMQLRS
Description: Chemical inhibition assay of HDB-EtCl O-dechloroethylation in HLMs. Conditions: ABT 500 μmol/L, resveratrol 100 μmol/L, others 1-10 μmol/L.

A further data set relates to LPS-induced ALI mice. Description: LPS-induced acute lung injury in mice. It is filed as in vivo, mouse.
The test system of data set [2] is DSS-induced ulcerative colitis mice. Put plainly: DSS-induced ulcerative colitis in mice. It is filed as in vivo, mouse.
The subject of data set [3] is CYP1A1 in Caco2, BEAS-2B, H292, and HepG2 cells. Description: Functional imaging of CYP1A1 in living cells. The format is cell-based, human. The note with it: 100 μmol/L, 1 h pre-incubation.
Data set [4] deals with Caco2, BEAS-2B, H292, and HepG2 cells. Put plainly: Cytotoxicity assays of probe, metabolite and inhibitor. It is filed as cell-based, human. The note with it: all tested mammalian cells.

Take `Nn1nnc2ccccc21` [ABT, 1-aminobenzotriazole]: the “inhibition of HDB-EtCl O-dechloroethylation in HLMs” value in data set [1] is “completely blocked”.
For `C[C@@H]1C[C@H]2[C@@H]3CCC4=CC(=O)C=C[C@]4(C)[C@@]3(F)[C@@H](O)C[C@]2(C)[C@@]1(O)C(=O)CO` [Dex, dexamethasone], in the data set on LPS-induced ALI mice (LAC-7 20 and 40 mg/kg, Dex 5 mg/kg), the lung injury scores result was “significantly reduce”. Also, in the data set with LPS-induced ALI mice (mouse, in vivo), the “Occludin immunofluorescence intensity in lung” value is listed as “enhanced”. In the data set with LPS-induced ALI mice (oral administration), the “ZO-1 immunofluorescence intensity in lung” value was “significantly increased”. Besides, the “total cell count in BALF” value with LPS-induced ALI mice (vs LPS-induced ALI mice) was “significantly decreased”.
Regarding `O=C(O)c1cc(/N=N/c2ccc(S(=O)(=O)Nc3ccccn3)cc2)ccc1O` [SASP, salazosulfapyridine], the “elevated IL-1β, TNF-α, IL-6, IFN-γ in intestinal tissues” value in data set [2] (ELISA, oral administration) was “effectively mitigated”. The “colon histopathological abnormities (H&E)” value in data set [2] (LAC-7 20 and 40 mg/kg, SASP 200 mg/kg) is “largely restored”. Also, the “shortening of colon length by DSS” value in data set [2] (LAC-7 20 and 40 mg/kg, SASP 200 mg/kg, oral) is “significantly reversed”. Besides, the “expression of tight junction proteins Occludin and ZO-1 in intestine” value in data set [2] (immunofluorescence) is “significantly increased”.
With `Oc1ccc(/C=C/c2cc(O)cc(O)c2)cc1` [resveratrol], the “blocking of HDB-EtCl red-channel fluorescent signals in cells” value in data set [3] was “completely blocked”. The cytotoxicity result in data set [4] is “weak cytotoxicity”. The “inhibition of HDB-EtCl O-dechloroethylation in HLMs” value in data set [1] was “completely blocked”.
